Data published in US20130338142A1, “IMIDAZOPYRAZINE SYK INHIBITORS” (Gilead Connecticut, Inc., priority 2012, published 2013).
≈ marks a conversion by molar mass, not a printed value.

Experiments:
Kinetic solubility study = conditions: 37 °C, kinetic from dmso stock
Procedure: The compounds tested (as listed in Table 2 below) were dissolved in dimethyl sulfoxide (DMSO) at a 10 mM concentration. A 3 μL sample aliquot of the DMSO solution is then added to 297 μL of desired aqueous media (pH 2, pH 5.4, and pH 7.4). The sample is then incubated for 24 hrs at 37° C. with shaking. After 24 hrs the samples are centrifuged, an aliquot of the supernatant liquid is removed and analyzed by HPLC. The compound concentration in the sample is determined by reference to a sample of the compound with known standard concentration.

Syk = Syk (Homo sapiens, UniProt P43405); assay: High throughput Syk assay (TR-FRET, KinEASE); type: biochemical; conditions: Syk TR-FRET assay of Example B2; 3 μM ATP, 0.5 nM Syk
Procedure: The following high throughput Syk assay was performed on the compounds of Table 1 as follows.
Syk activity was measured by detecting phosphorylated peptide substrate formation using antibody against phosphorylated peptide substrate. This is a time-resolved fluorescence resonance energy transfer (TR-FRET) immunoassay, based on the KinEASE Assay (Cisbio). […] Test compounds (in DMSO) were spotted into 384 well plates using a Labcyte® Echo 550 Liquid Handling System prior to addition of Syk enzyme and peptide substrate. Reaction solutions were delivered using a Multi-Flo (Bio-Tek Instruments). The enzyme and peptide solution was incubated with compound for 60 minutes at room temp before the reaction was initiated by the addition of ATP. […] The europium donor was excited using a 340-nm excitation filter with a 30-nm band pass. Energy transfer to the tracer was measured using a filter centered at 665 nm with a 10 nm bandpass. This signal was then referenced to the emission from europium peak, using a 615 nm, 10-nm bandpass filter. The “emission ratio” was calculated as the 665 nm signal divided by the 615 nm signal. Percentage of inhibition was calculated as below:
% Inhibition=100×(RatioSample−Ratio0% Inhibition)/(Ratio100% Inhibition−Ratio0% Inhibition)

[1] = aqueous media, pH 2, aqueous buffer
[2] = aqueous media, pH 5.4, aqueous buffer
[3] = aqueous media, pH 7.4, aqueous buffer

`COc1cc(Nc2nc(-c3ccc4c(c3)NCCO4)cn3ccnc23)ccc1N1CCOCC1` [Compound 14x, 6-(3,4-dihydro-2H-benzo[b][1,4]oxazin-6-yl)-N-(3-methoxy-4-moipholinophenyl)imidazo[1,2-a]pyrazin-8-amine, reference compound] showed a solubility at 24 h (Kinetic solubility study; [1]) of 87 µM (≈ 39.9 µg/mL), a solubility at 24 h (Kinetic solubility study; [2]) of 10 µM (≈ 4.59 µg/mL) and a solubility at 24 h (Kinetic solubility study; [3]) of 8 µM (≈ 3.67 µg/mL).

With `c1cn2cc(-c3cnc4c(c3)NCCO4)nc(Nc3ccc(N4CCOCC4)cc3)c2n1` [Compound 28x, 6-(2,3-dihydro-1H-pyrido[2,3-b][1,4]oxazin-7-yl)-N-(4-morpholinophenyl)imidazo[1,2-a]pyrazin-8-amine, reference compound] the solubility at 24 h (Kinetic solubility study; [1]) was 90 µM (≈ 38.7 µg/mL), the solubility at 24 h (Kinetic solubility study; [2]) was 9 µM (≈ 3.87 µg/mL) and the solubility at 24 h (Kinetic solubility study; [3]) was 9 µM (≈ 3.87 µg/mL).

`COc1cc(Nc2nc(-c3cnc4c(c3)NCCO4)cn3ccnc23)ccc1N1CCOCC1` [Example 5a, 6-(2,3-dihydro-1H-pyrido[2,3-b][1,4]oxazin-7-yl)-N-(3-methoxy-4-morpholinophenyl)imidazo[1,2-a]pyrazin-8-amine] gave a melting point of 233 to 234 °C.

`COc1cc(Nc2nc(-c3cnc4c(c3)NCCO4)cn3ccnc23)ccc1N1CCOCC1` [Compound 1, 6-(2,3-dihydro-1H-pyrido[2,3-b][1,4]oxazin-7-yl)-N-(3-methoxy-4-morpholinophenyl)imidazo[1,2-a]pyrazin-8-amine] showed an IC50 (Syk) of 3 nM, a solubility at 24 h (Kinetic solubility study; [1]) of 98 µM (≈ 45 µg/mL) and a solubility at 24 h (Kinetic solubility study; [2]) of 95 µM (≈ 43.7 µg/mL). It also gave a solubility at 24 h (Kinetic solubility study; [3]) of 95 µM (≈ 43.7 µg/mL).

Work on `c1cn2cc(-c3ccc4c(c3)NCCO4)nc(Nc3ccc(N4CCN(C5COC5)CC4)cc3)c2n1` [Compound 24, 6-(3,4-dihydro-2H-benzo[b][1,4]oxazin-6-yl)-N-(4-(4-(oxetan-3-yl)piperazin-1-yl)phenyl)imidazo[1,2-a]pyrazin-8-amine] yielded a solubility at 24 h (Kinetic solubility study; [1]) of 100 µM (≈ 48.4 µg/mL), a solubility at 24 h (Kinetic solubility study; [2]) of 61 µM (≈ 29.5 µg/mL) and a solubility at 24 h (Kinetic solubility study; [3]) of 33 µM (≈ 16 µg/mL).

Molecule `COc1cc(Nc2nc(-c3ccc4c(c3)NCCO4)cn3ccnc23)ccc1N1CCN(C2COC2)CC1` [Compound 4, 6-(3,4-dihydro-2H-benzo[b][1,4]oxazin-6-yl)-N-(3-methoxy-4-(4-(oxetan-3-yl)piperazin-1-yl)phenyl)imidazo[1,2-a]pyrazin-8-amine] has an IC50 (Syk) of 4 nM, a solubility at 24 h (Kinetic solubility study; [1]) of 94 µM (≈ 48.3 µg/mL) and a solubility at 24 h (Kinetic solubility study; [2]) of 94 µM (≈ 48.3 µg/mL). It also gave a solubility at 24 h (Kinetic solubility study; [3]) of 57 µM (≈ 29.3 µg/mL).

In the case of `COc1cc(Nc2nc(-c3ccc4cn[nH]c4c3)cn3ccnc23)ccc1N1CCOCC1` [Compound 90x, 6-(1H-indazol-6-yl)-N-(3-methoxy-4-morpholinophenyl)imidazo[1,2-a]pyrazin-8-amine, reference compound], the solubility at 24 h (Kinetic solubility study; pH 2, aqueous buffer) is reported as 94 µM (≈ 41.5 µg/mL), the solubility at 24 h (Kinetic solubility study; pH 5.4, aqueous buffer) is reported as 3 µM (≈ 1.32 µg/mL) and the solubility at 24 h (Kinetic solubility study; pH 7.4, aqueous buffer) is reported as 3 µM (≈ 1.32 µg/mL).

For `CO/N=C(/C)c1ccc(Nc2nc(-c3cnc4c(c3)NCCO4)cn3ccnc23)cc1` [Compound 108, (Z)-1-(4-((6-(2,3-dihydro-1H-pyrido[2,3-b][1,4]oxazin-7-yl)imidazo[1,2-a]pyrazin-8-yl)amino)phenyl)ethanone O-methyl oxime], the IC50 (Syk) was 7 nM.

`COc1cc(Nc2nc(-c3cnc4c(c3)N(C)C(=O)CO4)cn3ccnc23)ccc1N1CCOCC1` [Compound 60, 7-(8-((3-methoxy-4-morpholinophenyl)amino)imidazo [1,2-a]pyrazin-6-yl)-1-methyl-1H-pyrido[2,3-b][1,4]oxazin-2(3H)-one] showed an IC50 (Syk) of 39 nM.

With `COc1cc(Nc2nc(-c3ccc4c(c3)NCCO4)cn3ccnc23)ccc1N1CC[C@@H](N)C1` [Compound 9, (R)-N-(4-(3-aminopyrrolidin-1-yl)-3-methoxyphenyl)-6-(3,4-dihydro-2H-benzo[b][1,4]oxazin-6-yl)imidazo[1,2-a]pyrazin-8-amine] the IC50 (Syk) was 6 nM.

For `COc1cc(Nc2nc(-c3ccc4c(c3)CNCCO4)cn3ccnc23)ccc1N1CCOCC1` [Compound 3], the IC50 (Syk) was 7 nM, the solubility at 24 h (Kinetic solubility study; [1]) was 100 µM (≈ 47.3 µg/mL) and the solubility at 24 h (Kinetic solubility study; [2]) was 100 µM (≈ 47.3 µg/mL). For the same molecule, the solubility at 24 h (Kinetic solubility study; [3]) was 100 µM (≈ 47.3 µg/mL).

`COc1cc(Nc2nc(-c3cnc4c(c3)NCCO4)cn3ccnc23)ccc1N1CCN(C2COC2)C(C)(C)C1` [Compound 84, 6-(2,3-dihydro-1H-pyrido[2,3-b][1,4]oxazin-7-yl)-N-(4-(3,3-dimethyl-4-(oxetan-3-yl)piperazin-1-yl)-3-methoxyphenyl)imidazo[1,2-a]pyrazin-8-amine] gave an IC50 (Syk) of 10 nM.

Molecule `c1cn2cc(-c3cnc4c(c3)NCCO4)nc(Nc3cnn(C4CCOCC4)c3)c2n1` [Compound 44, 6-(2,3-dihydro-1H-pyrido[2,3-b][1,4]oxazin-7-yl)-N-(1-(tetrahydro-2H-pyran-4-yl)-1H-pyrazol-4-yl)imidazo[1,2-a]pyrazin-8-amine] has an IC50 (Syk) of 5 nM.

Work on `COc1cc(Nc2nc(-c3cnc4c(c3)NCCO4)cn3ccnc23)ccc1N1CCC2(CC1)OCCO2` [Compound 103, 6-(2,3-dihydro-1H-pyrido[2,3-b][1,4]oxazin-7-yl)-N-(3-methoxy-4-(1,4-dioxa-8-azaspiro[4.5]decan-8-yl)phenyl)imidazo[1,2-a]pyrazin-8-amine] yielded an IC50 (Syk) of 3 nM.

In the case of `COc1cc(Nc2nc(-c3cnc4c(c3)NCCO4)cn3ccnc23)ccc1-n1ccnc1` [Compound 40, N-(4-(1H-imidazol-1-yl)-3-methoxyphenyl)-6-(2,3-dihydro-1H-pyrido[2,3-b][1,4]oxazin-7-yl)imidazo[1,2-a]pyrazin-8-amine], the IC50 (Syk) is reported as 21 nM.

Molecule `COc1cc(Nc2nc(-c3cnc4c(c3)NCCO4)cn3ccnc23)ccc1N1CCC(=O)CC1` [Compound 104, 1-(4-((6-(2,3-dihydro-1H-pyrido[2,3-b][1,4]oxazin-7-yl)imidazo[1,2-a]pyrazin-8-yl)amino)-2-methoxyphenyl)piperidin-4-one] has an IC50 (Syk) of 4 nM.

`COc1cc(Nc2nc(-c3ccc4c(c3)OCCN4)cn3ccnc23)ccc1N1CCN(C2COC2)CC1` [Compound 6, 6-(3,4-dihydro-2H-benzo[b][1,4]oxazin-7-yl)-N-(3-methoxy-4-(4-(oxetan-3-yl)piperazin-1-yl)phenyl)imidazo[1,2-a]pyrazin-8-amine] gave an IC50 (Syk) of 7 nM.

Work on `OC1(c2ccc(Nc3nc(-c4cnc5c(c4)NCCO5)cn4ccnc34)cc2)CCC1` [Compound 101, 1-(4-((6-(2,3-dihydro-1H-pyrido[2,3-b][1,4]oxazin-7-yl)imidazo[1,2-a]pyrazin-8-yl)amino)phenyl)cyclobutanol] yielded an IC50 (Syk) of 7 nM.

For `CC(C)c1ncc(Nc2nc(-c3cnc4c(c3)NCCO4)cn3ccnc23)s1` [Compound 54, N-(6-(2,3-dihydro-1H-pyrido[2,3-b][1,4]oxazin-7-yl)imidazo[1,2-a]pyrazin-8-yl)-2-isopropylthiazol-5-amine], the IC50 (Syk) was 4 nM.

`COc1cc(Nc2nc(-c3cnc4c(c3)NCCO4)cn3ccnc23)ccc1N(C)C` [Compound 35, N4-(6-(2,3-dihydro-1H-pyrido[2,3-b][1,4]oxazin-7-yl)imidazo[1,2-a]pyrazin-8-yl)-2-methoxy-N1,N1-dimethylbenzene-1,4-diamine] gave an IC50 (Syk) of 2 nM.

For `COc1cc(Nc2nc(-c3cnc4c(c3)NCCO4)cn3ccnc23)ccc1N1CCC(=NO)CC1` [Compound 105, 1-(4-((6-(2,3-dihydro-1H-pyrido[2,3-b][1,4]oxazin-7-yl)imidazo[1,2-a]pyrazin-8-yl)amino)-2-methoxyphenyl)piperidin-4-one oxime], the IC50 (Syk) was 5 nM.

Work on `C[C@H](O)[C@H]1CN(c2ccc(Nc3nc(-c4cnc5c(c4)NCCO5)cn4ccnc34)cc2)CCO1` [Compound 5, (S)-1-((R)-4-(4-((6-(2,3-dihydro-1H-pyrido[2,3-b][1,4]oxazin-7-yl)imidazo[1,2-a]pyrazin-8-yl)amino)phenyl)morpholin-2-yl)ethanol] yielded an IC50 (Syk) of 6 nM.
